According to ChEMBL document CHEMBL5518207, “Structure Guided Discovery of Novel Pan Metallo-β-Lactamase Inhibitors with Improved Gram-Negative Bacterial Cell Penetration” (J Med Chem, 2024):

Experiments:
[1] = target: Voltage-dependent L-type calcium channel subunit alpha-1C (Homo sapiens, UniProt Q13936); assay: Inhibition of Cav1.2 channel (unknown origin)
[2] = target: Cytochrome P450 3A4 (Homo sapiens, UniProt P08684); assay: Inhibition of CYP3A4 (unknown origin); assay type: ADME
[3] = Cmax in Wistar rat at 30 mg/kg, iv measured after 24 hrs by HPLC-MS analysis; assay type: ADME, organism-based; settings: in vivo
[4] = Inhibition of GST tagged VIM-2 (unknown origin) expressed in Escherichia coli BL21 Star (DE3) competent cells using CCF2-FA as substrate incubated for 2 hrs by fluorescence based analysis
[5] = Volume of distribution at steady state in rat at 1 mg/kg, iv measured after 24 hrs by HPLC-MS analysis; assay type: ADME, organism-based; settings: in vivo, read-out: Vdss
[6] = target: Sodium channel protein type 5 subunit alpha (Homo sapiens, UniProt Q14524); assay: Inhibition of NaV 1.5 channel (unknown origin)
Sodium channel protein type 5 subunit alpha, sequence (Q14524 whole entry): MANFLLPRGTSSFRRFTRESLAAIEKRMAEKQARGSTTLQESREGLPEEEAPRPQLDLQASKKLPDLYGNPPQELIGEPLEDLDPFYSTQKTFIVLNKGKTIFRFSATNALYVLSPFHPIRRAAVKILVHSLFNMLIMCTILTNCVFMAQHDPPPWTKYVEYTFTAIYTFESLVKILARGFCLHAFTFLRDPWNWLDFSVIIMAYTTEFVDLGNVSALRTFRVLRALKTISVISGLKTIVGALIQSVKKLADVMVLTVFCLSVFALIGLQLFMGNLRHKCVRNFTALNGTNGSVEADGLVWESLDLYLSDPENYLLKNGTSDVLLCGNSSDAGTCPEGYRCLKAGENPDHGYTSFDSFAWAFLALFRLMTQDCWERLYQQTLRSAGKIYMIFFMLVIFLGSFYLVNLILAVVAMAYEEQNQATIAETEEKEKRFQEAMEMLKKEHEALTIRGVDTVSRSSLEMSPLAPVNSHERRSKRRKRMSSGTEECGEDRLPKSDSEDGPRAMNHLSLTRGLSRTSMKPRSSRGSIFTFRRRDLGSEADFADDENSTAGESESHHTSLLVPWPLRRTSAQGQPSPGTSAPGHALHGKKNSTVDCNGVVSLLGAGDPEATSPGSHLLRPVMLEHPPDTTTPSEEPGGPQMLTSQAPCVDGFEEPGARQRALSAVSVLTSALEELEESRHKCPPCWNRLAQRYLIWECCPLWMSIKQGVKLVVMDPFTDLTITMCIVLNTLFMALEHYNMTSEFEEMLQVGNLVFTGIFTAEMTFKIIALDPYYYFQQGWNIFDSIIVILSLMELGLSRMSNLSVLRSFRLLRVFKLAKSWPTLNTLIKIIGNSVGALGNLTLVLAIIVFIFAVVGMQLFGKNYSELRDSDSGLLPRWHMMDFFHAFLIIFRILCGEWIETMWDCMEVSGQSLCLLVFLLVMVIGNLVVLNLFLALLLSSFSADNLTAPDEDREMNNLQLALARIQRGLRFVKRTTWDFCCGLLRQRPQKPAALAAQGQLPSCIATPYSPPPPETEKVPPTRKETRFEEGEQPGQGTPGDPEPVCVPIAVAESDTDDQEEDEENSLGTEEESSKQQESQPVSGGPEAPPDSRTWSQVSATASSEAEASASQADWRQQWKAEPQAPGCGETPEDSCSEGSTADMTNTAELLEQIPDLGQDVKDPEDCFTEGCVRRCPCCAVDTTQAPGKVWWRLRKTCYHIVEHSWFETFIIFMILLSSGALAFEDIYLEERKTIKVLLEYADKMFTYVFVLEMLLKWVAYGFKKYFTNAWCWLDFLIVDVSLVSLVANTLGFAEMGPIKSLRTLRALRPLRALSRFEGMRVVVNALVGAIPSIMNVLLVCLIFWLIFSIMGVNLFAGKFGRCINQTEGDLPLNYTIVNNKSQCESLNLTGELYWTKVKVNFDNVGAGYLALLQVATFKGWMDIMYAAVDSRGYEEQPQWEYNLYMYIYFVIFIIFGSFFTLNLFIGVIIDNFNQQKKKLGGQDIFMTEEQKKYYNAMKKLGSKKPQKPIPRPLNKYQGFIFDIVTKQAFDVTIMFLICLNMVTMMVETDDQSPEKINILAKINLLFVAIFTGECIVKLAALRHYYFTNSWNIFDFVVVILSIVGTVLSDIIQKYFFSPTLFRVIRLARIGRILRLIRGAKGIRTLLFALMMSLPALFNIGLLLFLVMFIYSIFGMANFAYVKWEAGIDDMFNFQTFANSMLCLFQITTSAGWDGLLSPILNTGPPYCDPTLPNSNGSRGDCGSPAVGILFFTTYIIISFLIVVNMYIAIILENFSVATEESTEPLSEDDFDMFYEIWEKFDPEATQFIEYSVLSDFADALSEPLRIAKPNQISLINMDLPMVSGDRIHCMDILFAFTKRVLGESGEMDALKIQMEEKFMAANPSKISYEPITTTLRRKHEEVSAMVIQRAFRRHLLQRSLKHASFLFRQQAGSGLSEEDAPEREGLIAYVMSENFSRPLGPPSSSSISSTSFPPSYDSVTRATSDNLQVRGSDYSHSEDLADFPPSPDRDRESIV

[7] = Cmax in rat at 1 mg/kg, iv measured after 24 hrs by HPLC-MS analysis; assay type: ADME, organism-based; settings: in vivo
[8] = test system: Pseudomonas aeruginosa; assay: Potentiation of imipenem induced antibacterial activity against isogenic efflux deleted mutant Pseudomonas aeruginosa MB9799 harbouring IMP incubated for 18 to 22 hrs imipenem and beta lactamase inhibitor by spectrophotometer based analysis; assay type: functional; settings: time 18-22 hrs
[9] = target: Voltage-gated inwardly rectifying potassium channel KCNH2 (Homo sapiens, UniProt Q12809); assay: Inhibition of human ERG; assay type: toxicity
Voltage-gated inwardly rectifying potassium channel KCNH2, sequence (Q12809 whole entry): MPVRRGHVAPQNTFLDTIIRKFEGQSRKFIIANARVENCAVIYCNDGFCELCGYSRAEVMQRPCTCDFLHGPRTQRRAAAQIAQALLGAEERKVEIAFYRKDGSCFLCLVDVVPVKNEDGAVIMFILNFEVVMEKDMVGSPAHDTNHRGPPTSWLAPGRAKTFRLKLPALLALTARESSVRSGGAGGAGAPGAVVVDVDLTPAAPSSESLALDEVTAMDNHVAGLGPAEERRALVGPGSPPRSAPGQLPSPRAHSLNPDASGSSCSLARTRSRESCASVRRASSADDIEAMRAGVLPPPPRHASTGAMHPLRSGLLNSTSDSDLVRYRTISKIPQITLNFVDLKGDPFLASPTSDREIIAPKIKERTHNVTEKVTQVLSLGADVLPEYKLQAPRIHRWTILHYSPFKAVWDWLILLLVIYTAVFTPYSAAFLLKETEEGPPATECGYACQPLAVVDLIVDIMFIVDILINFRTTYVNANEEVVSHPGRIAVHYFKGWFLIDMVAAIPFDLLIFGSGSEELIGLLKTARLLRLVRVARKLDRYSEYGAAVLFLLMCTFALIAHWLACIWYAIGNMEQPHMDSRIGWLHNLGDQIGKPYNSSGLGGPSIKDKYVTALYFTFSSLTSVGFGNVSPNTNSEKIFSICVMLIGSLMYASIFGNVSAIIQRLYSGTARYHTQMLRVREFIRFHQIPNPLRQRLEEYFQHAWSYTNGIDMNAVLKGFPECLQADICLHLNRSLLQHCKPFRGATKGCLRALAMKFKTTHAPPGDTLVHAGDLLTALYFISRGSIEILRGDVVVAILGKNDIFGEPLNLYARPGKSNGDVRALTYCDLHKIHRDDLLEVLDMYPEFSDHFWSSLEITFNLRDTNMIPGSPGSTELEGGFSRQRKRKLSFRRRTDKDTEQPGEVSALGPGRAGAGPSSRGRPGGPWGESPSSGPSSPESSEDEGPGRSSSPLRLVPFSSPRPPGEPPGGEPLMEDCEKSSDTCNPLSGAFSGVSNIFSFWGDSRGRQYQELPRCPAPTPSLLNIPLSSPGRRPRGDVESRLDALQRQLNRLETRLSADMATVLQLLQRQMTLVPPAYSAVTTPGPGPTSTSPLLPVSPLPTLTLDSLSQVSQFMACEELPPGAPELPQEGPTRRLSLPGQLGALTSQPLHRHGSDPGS

[10] = test system: Escherichia coli; assay: Potentiation of imipenem induced antibacterial activity against Escherichia coli CLB30005 harbouring NDM-1 incubated for 18 to 22 hrs in presence of imipenem by spectrophotometer based analysis; assay type: functional; settings: time 18-22 hrs
[11] = AUC in rat at 1 mg/kg, iv measured after 24 hrs by HPLC-MS analysis; assay type: ADME, organism-based; settings: in vivo
[12] = Inhibition of GST tagged IMP-1 (unknown origin) expressed in Escherichia coli BL21 Star (DE3) competent cells using CCF2-FA as substrate incubated for 2 hrs by fluorescence based analysis
[13] = target: T1, Cytochrome P450 2C8 (Homo sapiens, UniProt P10632); assay: Inhibition of CYP2C8 (unknown origin); assay type: ADME
T1 sequence (P10632 whole entry): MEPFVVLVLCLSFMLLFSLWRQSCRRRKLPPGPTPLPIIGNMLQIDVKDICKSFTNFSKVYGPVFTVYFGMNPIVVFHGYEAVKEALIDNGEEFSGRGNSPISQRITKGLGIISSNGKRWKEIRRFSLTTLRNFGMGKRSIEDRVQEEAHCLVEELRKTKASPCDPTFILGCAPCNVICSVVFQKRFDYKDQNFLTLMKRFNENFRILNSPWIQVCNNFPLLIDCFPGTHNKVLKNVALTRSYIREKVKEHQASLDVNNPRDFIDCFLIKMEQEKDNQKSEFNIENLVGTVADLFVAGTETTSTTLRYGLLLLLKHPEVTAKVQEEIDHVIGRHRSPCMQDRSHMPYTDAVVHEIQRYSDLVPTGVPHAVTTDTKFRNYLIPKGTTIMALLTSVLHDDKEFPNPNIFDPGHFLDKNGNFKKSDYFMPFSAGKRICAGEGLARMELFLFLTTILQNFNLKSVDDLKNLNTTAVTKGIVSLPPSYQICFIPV

[14] = target: Cytochrome P450 2D6 (Homo sapiens, UniProt P10635); assay: Inhibition of CYP2D6 (unknown origin); assay type: ADME
Cytochrome P450 2D6, sequence (P10635 whole entry): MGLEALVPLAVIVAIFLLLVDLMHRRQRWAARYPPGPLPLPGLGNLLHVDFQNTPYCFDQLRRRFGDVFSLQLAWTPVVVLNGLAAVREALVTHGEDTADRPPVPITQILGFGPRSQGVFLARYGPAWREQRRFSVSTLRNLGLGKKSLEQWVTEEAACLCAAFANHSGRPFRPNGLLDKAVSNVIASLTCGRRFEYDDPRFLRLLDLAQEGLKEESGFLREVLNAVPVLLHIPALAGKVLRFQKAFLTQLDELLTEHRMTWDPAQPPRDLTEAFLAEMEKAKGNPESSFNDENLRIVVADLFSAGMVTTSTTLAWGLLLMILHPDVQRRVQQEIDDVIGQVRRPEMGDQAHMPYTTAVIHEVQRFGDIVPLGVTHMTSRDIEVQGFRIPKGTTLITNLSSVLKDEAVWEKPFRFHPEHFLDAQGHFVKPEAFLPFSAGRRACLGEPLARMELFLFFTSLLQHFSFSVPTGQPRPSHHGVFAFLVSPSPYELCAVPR

[15] = Inhibition of GST tagged NDM-1 (unknown origin) expressed in Escherichia coli BL21 Star (DE3) competent cells using CCF2-FA as substrate incubated for 2 hrs by fluorescence based analysis
[16] = Unbound fraction in Beagle dog plasma at 1 mg/kg, iv measured after 24 hrs by HPLC-MS analysis; assay type: ADME, organism-based, Canis lupus familiaris
[17] = test system: Pseudomonas aeruginosa; assay: Efflux ratio of MITC95 for potentiation of imipenem induced antibacterial activity against isogenic efflux wild type Pseudomonas aeruginosa MB9798 harbouring IMP to MITC95 for potentiation of imipenem induced antibacterial activity against isogenic efflux deleted mutant Pseudomonas aeruginosa MB9799 harbouring IMP; assay type: functional
[18] = test system: Serratia marcescens; assay: Potentiation of imipenem induced antibacterial activity against Serratia marcescens CL5741 harbouring IMP-1 incubated for 18 to 22 hrs imipenem by spectrophotometer based analysis; assay type: functional; settings: time 18-22 hrs
[19] = Toxicity in Beagle dog assessed as increase in histamine level in plasma at 1 mg/kg, iv measured upto 24 hrs by HPLC-MS analysis; assay type: organism-based, Canis lupus familiaris; settings: in vivo
[20] = Toxicity in Beagle dog assessed as appearance of watery eyes at 1 mg/kg, iv measured after 24 hrs by HPLC-MS analysis; assay type: organism-based, Canis lupus familiaris; settings: in vivo
[21] = Toxicity in Wistar rat assessed as increase in histamine concentration in plasma at 30 mg/kg, iv measured after 24 hrs; assay type: organism-based; settings: in vivo
[22] = test system: Pseudomonas aeruginosa; assay: Potentiation of imipenem induced antibacterial activity against isogenic efflux wild type Pseudomonas aeruginosa MB9798 harbouring IMP incubated for 18 to 22 hrs imipenem and beta lactamase inhibitor by spectrophotometer based analysis; assay type: functional; settings: time 18-22 hrs
[23] = Toxicity in Beagle dog assessed as emesis at 1 mg/kg, iv measured after 24 hrs by HPLC-MS analysis; assay type: organism-based, Canis lupus familiaris; settings: in vivo
[24] = Toxicity in Wistar rat assessed as decrease in mean blood pressure at 30 mg/kg, iv measured after 20 mins; assay type: organism-based; settings: in vivo
[25] = Cmax in Beagle dog at 1 mg/kg, iv measured after 24 hrs by HPLC-MS analysis; assay type: ADME, organism-based, Canis lupus familiaris; settings: in vivo
[26] = Clearance in rat at 1 mg/kg, iv measured after 24 hrs by HPLC-MS analysis; assay type: ADME, organism-based; settings: in vivo
[27] = Inhibition of GST tagged VIM-1 (unknown origin) expressed in Escherichia coli BL21 Star (DE3) competent cells using CCF2-FA as substrate incubated for 2 hrs by fluorescence based analysis
[28] = Unbound fraction in rat plasma at 1 mg/kg, iv measured after 24 hrs by HPLC-MS analysis; assay type: ADME, organism-based
[29] = AUC in Beagle dog at 1 mg/kg, iv measured after 24 hrs by HPLC-MS analysis; assay type: ADME, organism-based, Canis lupus familiaris; settings: in vivo
[30] = target: Voltage-gated potassium channel, IKs; KCNQ1(Kv7.1)/KCNE1(MinK) (Homo sapiens, UniProt P15382+P51787); assay: Inhibition of KCNQ1/KCNE1 (unknown origin); assay type: protein-complex assay
Voltage-gated potassium channel, IKs; KCNQ1(Kv7.1)/KCNE1(MinK), sequence (P51787 whole entry): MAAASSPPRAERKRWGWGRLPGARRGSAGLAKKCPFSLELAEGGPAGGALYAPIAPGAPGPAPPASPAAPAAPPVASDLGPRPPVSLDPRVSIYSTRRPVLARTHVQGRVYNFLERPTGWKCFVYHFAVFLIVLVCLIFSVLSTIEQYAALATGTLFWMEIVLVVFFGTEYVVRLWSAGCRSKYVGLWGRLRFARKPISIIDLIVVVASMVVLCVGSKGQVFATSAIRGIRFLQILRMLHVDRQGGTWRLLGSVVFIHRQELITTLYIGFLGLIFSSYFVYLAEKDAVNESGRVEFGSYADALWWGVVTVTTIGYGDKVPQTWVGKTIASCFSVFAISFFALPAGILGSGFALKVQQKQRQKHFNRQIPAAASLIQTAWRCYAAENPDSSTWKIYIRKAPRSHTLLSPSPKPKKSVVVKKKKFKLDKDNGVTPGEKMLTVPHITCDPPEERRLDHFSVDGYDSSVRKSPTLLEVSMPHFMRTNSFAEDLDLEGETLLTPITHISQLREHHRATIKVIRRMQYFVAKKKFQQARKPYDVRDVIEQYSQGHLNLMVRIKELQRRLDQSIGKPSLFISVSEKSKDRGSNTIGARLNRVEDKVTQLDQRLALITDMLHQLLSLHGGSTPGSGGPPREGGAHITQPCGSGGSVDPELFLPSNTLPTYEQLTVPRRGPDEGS

[31] = test system: Klebsiella pneumoniae; assay: Potentiation of imipenem induced antibacterial activity against Klebsiella pneumoniae IHMA599644 harbouring VIM-1 incubated for 18 to 22 hrs imipenem by spectrophotometer based analysis; assay type: functional; settings: time 18-22 hrs
[32] = Volume of distribution at steady state in Beagle dog at 1 mg/kg, iv measured after 24 hrs by HPLC-MS analysis; assay type: ADME, organism-based, Canis lupus familiaris; settings: in vivo, read-out: Vdss
[33] = MRT in Beagle dog at 1 mg/kg, iv measured after 24 hrs by HPLC-MS analysis; assay type: ADME, organism-based, Canis lupus familiaris; settings: in vivo
[34] = Clearance in Beagle dog at 1 mg/kg, iv measured after 24 hrs by HPLC-MS analysis; assay type: ADME, organism-based, Canis lupus familiaris; settings: in vivo
[35] = MRT in rat at 1 mg/kg, iv measured after 24 hrs by HPLC-MS analysis; assay type: ADME, organism-based; settings: in vivo
[36] = target: Cytochrome P450 2C9 (Homo sapiens, UniProt P11712); assay: Inhibition of CYP2C9 (unknown origin); assay type: ADME
Cytochrome P450 2C9, sequence (P11712 whole entry): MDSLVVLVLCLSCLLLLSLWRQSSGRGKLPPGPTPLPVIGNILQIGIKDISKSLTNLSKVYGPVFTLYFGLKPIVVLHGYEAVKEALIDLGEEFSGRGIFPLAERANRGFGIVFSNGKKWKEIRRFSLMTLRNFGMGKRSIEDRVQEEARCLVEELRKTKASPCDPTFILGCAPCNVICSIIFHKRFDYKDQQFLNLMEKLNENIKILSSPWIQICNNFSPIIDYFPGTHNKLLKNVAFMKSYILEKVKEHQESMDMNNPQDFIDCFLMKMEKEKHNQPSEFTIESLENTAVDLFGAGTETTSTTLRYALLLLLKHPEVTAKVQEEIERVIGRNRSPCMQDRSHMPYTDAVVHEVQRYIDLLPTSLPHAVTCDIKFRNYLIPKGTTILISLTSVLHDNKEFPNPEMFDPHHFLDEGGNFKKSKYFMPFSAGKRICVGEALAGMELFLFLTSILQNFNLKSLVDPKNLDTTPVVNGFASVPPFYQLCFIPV

[37] = Unbound fraction in rat plasma at 5 mg/kg, iv measured after 24 hrs by HPLC-MS analysis; assay type: ADME, organism-based
[38] = Toxicity in Wistar rat assessed as decrease in mean blood pressure at 100 mg/kg, iv measured after 20 mins; assay type: organism-based; settings: in vivo
[39] = Cmax in rat at 5 mg/kg, iv measured after 24 hrs by HPLC-MS analysis; assay type: ADME, organism-based; settings: in vivo
[40] = Cmax in Wistar rat at 100 mg/kg, iv measured after 24 hrs by HPLC-MS analysis; assay type: ADME, organism-based; settings: in vivo
[41] = AUC in rat at 5 mg/kg, iv measured after 24 hrs by HPLC-MS analysis; assay type: ADME, organism-based; settings: in vivo
[42] = Toxicity in Beagle dog assessed as drug tolerability at 1 mg/kg, iv measured after 24 hrs by HPLC-MS analysis; assay type: organism-based, Canis lupus familiaris; settings: in vivo
[43] = Clearance in rat at 5 mg/kg, iv measured after 24 hrs by HPLC-MS analysis; assay type: ADME, organism-based; settings: in vivo
[44] = Toxicity in Wistar rat assessed as increase in histamine concentration in plasma at 100 mg/kg, iv measured after 24 hrs; assay type: organism-based; settings: in vivo
[45] = Volume of distribution at steady state in rat at 5 mg/kg, iv measured after 24 hrs by HPLC-MS analysis; assay type: ADME, organism-based; settings: in vivo, read-out: Vdss
[46] = MRT in rat at 5 mg/kg, iv measured after 24 hrs by HPLC-MS analysis; assay type: ADME, organism-based; settings: in vivo
[47] = Toxicity in Beagle dog assessed as severe adverse effect at 1 mg/kg, iv measured after 24 hrs by HPLC-MS analysis; assay type: organism-based, Canis lupus familiaris; settings: in vivo
[48] = Toxicity in Beagle dog assessed as increase in respiration at 1 mg/kg, iv measured after 24 hrs by HPLC-MS analysis; assay type: organism-based, Canis lupus familiaris; settings: in vivo
[49] = Toxicity in Beagle dog assessed as vocalization at 1 mg/kg, iv measured after 24 hrs by HPLC-MS analysis; assay type: organism-based, Canis lupus familiaris; settings: in vivo
[50] = Toxicity in Beagle dog assessed as decrease in activity at 1 mg/kg, iv measured after 24 hrs by HPLC-MS analysis; assay type: organism-based, Canis lupus familiaris; settings: in vivo

Row | SMILES | IC50 [1] [nM] | IC50 [2] [nM] | IC50 [4] [nM] | Vd [5] [L/kg] | IC50 [6] [nM] | MITC95 [8] [µM] | IC50 [9] [nM] | MITC95 [10] [µM] | IC50 [12] [nM] | IC50 [13] [nM] | IC50 [14] [nM] | IC50 [15] [nM] | Ratio [17] | MITC95 [18] [µM] | MITC95 [22] [µM] | Cmax [25] [µM] | IC50 [27] [nM] | IC50 [30] [nM] | MITC95 [31] [µM] | IC50 [36] [nM] | further results
1 | NS(=O)(=O)c1c(CC2CCNCC2)ccc(-c2ccc(C3CCNCC3)cc2)c1-c1nn[nH]n1 | > 30000 | > 50000 | 1230 | 0.34 | > 30000 | 0.8 | > 30000 | 2 | 24 | > 50000 | > 50000 | 11 | 6 | 3.9 | 4.4 | 15 | 5 | > 30000 | 2.3 | > 50000 | Cmax [3]: 459 µM; Cmax [7]: 8.6 µM; AUC at 24 h [11]: 5.5 µM·h; fraction unbound at 24 h [16]: 0.84; Activity [19]: Toxic; Activity [20]: Toxic; Activity [21]: Toxic; Activity [23]: Toxic; Activity [24]: Toxic; clearance [26]: 6.4 mL/min/kg; fraction unbound at 24 h [28]: 0.8; AUC at 24 h [29]: 10.4 µM·h; Vd [32]: 0.45 L/kg; MRT [33]: 3.2 h; clearance [34]: 3.5 mL/min/kg; MRT [35]: 0.88 h
2 | NS(=O)(=O)c1c(C(F)(F)F)ccc(-c2ccc(C3CCN(CC4CNC4)CC3)cc2)c1-c1nnn[nH]1 | > 30000 | > 50000 | 62 |  | > 30000 | 0.39 | > 30000 | 0.6 | 0.4 | > 50000 | > 50000 | 2.3 | 12 | 1.6 | 4.7 | 13.8 | 3.8 | > 30000 | 7.8 | > 50000 | fraction unbound at 24 h [37]: 0.35; Activity [38]: Toxic; Cmax [39]: 33.1 µM; Cmax [40]: 726 µM; AUC at 24 h [41]: 9.6 µM·h; Activity [42]: Non-Toxic; clearance [43]: 19 mL/min/kg; Activity [44]: Toxic; Vd [45]: 0.73 L/kg; MRT [46]: 0.71 h
3 | Nc1nc2cccc(-c3ccc(C(F)(F)F)c(S(N)(=O)=O)c3-c3nnn[nH]3)c2[nH]1 | > 30000 | > 50000 | 1.3 | 0.38 | > 30000 | 0.78 | > 30000 | 0.4 | 3.8 | > 50000 | > 50000 | 0.1 | 32 | 0.8 | 25 | 9 | 0.3 | > 30000 | 1.6 | > 50000 | Activity [47]: Non-Toxic; Cmax [7]: 10.8 µM; AUC at 24 h [11]: 4.1 µM·h; fraction unbound at 24 h [16]: 0.26; clearance [26]: 9.6 mL/min/kg; fraction unbound at 24 h [28]: 0.065; AUC at 24 h [29]: 4.34 µM·h; Vd [32]: 0.94 L/kg; MRT [33]: 1.72 h; clearance [34]: 9.1 mL/min/kg; MRT [35]: 0.66 h
4 | NS(=O)(=O)c1c(C[C@H]2CC[C@H](N)CC2)ccc(-c2ccc(C3CNC3)cc2)c1-c1nn[nH]n1 |  |  |  |  |  | 1.6 |  | 0.8 | 43 |  |  | 4 | 11 | 3.1 | 18 | 9.3 | 1 |  | 1.6 |  | fraction unbound at 24 h [37]: 0.42; Activity [48]: Toxic; Activity [49]: Toxic; Cmax [39]: 84.3 µM; AUC at 24 h [41]: 83.7 µM·h; Activity [19]: Toxic; Activity [20]: Toxic; Activity [23]: Toxic; clearance [43]: 2.2 mL/min/kg; Activity [50]: Toxic; Vd [45]: 0.39 L/kg; MRT [46]: 3.13 h
